From ChEMBL document CHEMBL3217645, “Online parallel fragment screening and rapid hit exploration for nicotinic acetylcholine receptors” (Medchemcomm, 2011)

Experiments:
[1] = Selectivity ratio of Ki for Lymnaea stagnalis recombinant C-terminal His-tagged AChBP to Ki for human alpha7 nAChR
[2] = target: Neuronal acetylcholine receptor subunit alpha-7 (Homo sapiens, UniProt P36544); assay: Displacement of [3H]epibatadine from human alpha7 nAChR expressed in human SH-SY5Y cells after 1.5 hrs by scintillation counting analysis; format: cell-based
[3] = target: Acetylcholine-binding protein (Lymnaea stagnalis, UniProt P58154); assay: Displacement of [3H]epibatadine from Lymnaea stagnalis recombinant C-terminal His-tagged AChBP expressed in baculovirus infected SF9 cells after 1.5 hrs by scintillation counting analysis
[4] = Selectivity ratio of Ki for Lymnaea stagnalis AChBP over Ki for Aplysia californica AChBP
[5] = Displacement of [3H]epibatadine from Aplysia californica recombinant C-terminal His-tagged AChBP expressed in baculovirus infected SF9 cells after 1.5 hrs by scintillation counting analysis
[6] = target: Neuronal acetylcholine receptor; alpha4/beta2 (Homo sapiens, UniProt P17787+P43681); assay: Displacement of [3H]epibatadine from human alpha4beta2 nAChR expressed in HEK293T cells after 1.5 hrs by scintillation counting analysis; format: cell-based, HEK-293T
Chain of Neuronal acetylcholine receptor; alpha4/beta2 (P17787 whole entry): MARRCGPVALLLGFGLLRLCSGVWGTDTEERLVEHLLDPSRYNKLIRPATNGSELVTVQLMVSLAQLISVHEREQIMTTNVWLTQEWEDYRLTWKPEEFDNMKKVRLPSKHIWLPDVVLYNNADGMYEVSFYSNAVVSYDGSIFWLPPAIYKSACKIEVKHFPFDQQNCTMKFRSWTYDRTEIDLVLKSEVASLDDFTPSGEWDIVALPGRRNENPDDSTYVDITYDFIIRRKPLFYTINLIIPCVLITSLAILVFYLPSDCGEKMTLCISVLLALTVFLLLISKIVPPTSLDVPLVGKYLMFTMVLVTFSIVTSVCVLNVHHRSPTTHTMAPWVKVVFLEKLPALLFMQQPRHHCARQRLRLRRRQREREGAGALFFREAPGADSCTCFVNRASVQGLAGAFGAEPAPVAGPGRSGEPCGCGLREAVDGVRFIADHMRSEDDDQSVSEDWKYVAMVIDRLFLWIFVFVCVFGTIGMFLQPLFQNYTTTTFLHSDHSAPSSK
Chain of Neuronal acetylcholine receptor; alpha4/beta2 (P43681 whole entry): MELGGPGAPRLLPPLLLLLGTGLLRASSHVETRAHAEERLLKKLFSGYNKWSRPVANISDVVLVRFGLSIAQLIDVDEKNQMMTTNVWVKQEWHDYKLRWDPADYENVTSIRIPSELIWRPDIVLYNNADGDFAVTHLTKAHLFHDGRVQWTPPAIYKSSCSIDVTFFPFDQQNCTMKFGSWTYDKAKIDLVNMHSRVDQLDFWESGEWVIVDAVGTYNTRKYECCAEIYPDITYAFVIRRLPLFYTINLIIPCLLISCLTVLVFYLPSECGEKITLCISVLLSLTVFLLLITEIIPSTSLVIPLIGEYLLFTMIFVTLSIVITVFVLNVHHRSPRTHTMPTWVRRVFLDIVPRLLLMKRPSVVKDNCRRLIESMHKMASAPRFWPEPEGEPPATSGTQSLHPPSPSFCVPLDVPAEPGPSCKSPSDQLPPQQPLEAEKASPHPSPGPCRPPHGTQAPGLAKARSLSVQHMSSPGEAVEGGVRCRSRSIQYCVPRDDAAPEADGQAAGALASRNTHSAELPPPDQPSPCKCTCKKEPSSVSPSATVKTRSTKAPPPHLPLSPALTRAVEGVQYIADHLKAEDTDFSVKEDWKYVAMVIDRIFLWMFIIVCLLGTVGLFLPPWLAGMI

Chain of Acetylcholine-binding protein (P58154 whole entry): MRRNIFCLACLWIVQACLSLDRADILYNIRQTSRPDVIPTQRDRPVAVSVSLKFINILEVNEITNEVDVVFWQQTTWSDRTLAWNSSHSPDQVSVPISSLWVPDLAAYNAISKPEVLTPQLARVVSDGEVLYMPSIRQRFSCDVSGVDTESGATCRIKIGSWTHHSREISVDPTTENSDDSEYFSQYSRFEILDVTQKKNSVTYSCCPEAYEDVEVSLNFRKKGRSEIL
Chain of Neuronal acetylcholine receptor subunit alpha-7 (P36544 whole entry): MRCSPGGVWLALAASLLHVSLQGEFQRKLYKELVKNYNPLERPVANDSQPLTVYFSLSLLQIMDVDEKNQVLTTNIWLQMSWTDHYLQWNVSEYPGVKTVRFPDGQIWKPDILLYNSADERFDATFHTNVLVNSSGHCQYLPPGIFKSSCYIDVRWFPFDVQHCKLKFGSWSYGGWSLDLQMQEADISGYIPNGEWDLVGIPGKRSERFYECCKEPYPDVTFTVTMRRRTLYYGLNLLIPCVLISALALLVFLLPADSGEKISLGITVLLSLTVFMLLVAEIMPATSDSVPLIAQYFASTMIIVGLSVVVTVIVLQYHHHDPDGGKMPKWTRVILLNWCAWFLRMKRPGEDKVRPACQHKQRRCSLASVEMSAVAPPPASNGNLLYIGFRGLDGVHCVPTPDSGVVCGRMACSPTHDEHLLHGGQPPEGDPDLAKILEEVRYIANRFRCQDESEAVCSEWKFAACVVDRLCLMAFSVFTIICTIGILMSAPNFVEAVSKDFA

SMILES	Ratio Ki [1]	Ki [2] [µM]	Ki [3] [µM]	Ratio Ki [4]	pKi [5]	Ki [6] [µM]
CN1[C@@H]2CC[C@H]1C/C(=N\Nc1ccccc1Cl)C2	5	2.19	0.204	–	–	–
C[C@H](NC(=O)[C@H](CS)NC(=O)[C@H](CCCNC(=N)N)NC(=O)[C@@H]1CCCN1C(=O)[C@H](CC(=O)O)NC(=O)[C@H](CO)NC(=O)[C@H](CS)NC(=O)[C@H](CS)NC(=O)CN)C(=O)N[C@@H](Cc1c[nH]c2ccccc12)C(=O)N[C@@H](CCCNC(=N)N)C(=O)N[C@@H](CS)C(N)=O	–	–	–	> 6000	–	–
Fc1ccc(F)c(NN=C2CCN(CCc3ccccc3)CC2)c1	–	> 100	0.0891	–	–	–
CC(C)N1CCC(=NO)CC1	–	10.2	10.5	> 9.5	< 4	> 100
